Data as given in patent US7230132B2, “Aryl N-cyanoguanidines and methods related thereto” (Migenix Corp., priority 2001, dated 2007).

Columns and labels:
Type in all cases: cell-based
TC28 cells [1] = experiment: GAG release from TC28 chondrocytes in polyHEME plates (DMB dye binding assay); settings: for % Decrease in GAG Release, IL-1b / % Decrease in GAG Release, NOC-12 / % Decrease in GAG Release, SIN-1: TC28 cells in polyHEME plates, 1 μM compound; for % Decrease in GAG Release, IL-1b: trigger IL-1 10 ng/ml; for % Decrease in GAG Release, NOC-12: trigger NOC-12 25 μM; for % Decrease in GAG Release, SIN-1: trigger SIN-1 10 μM; for EC50: approximate, prevention of GAG release, polyHEME plates, 1 h pretreatment, 72 h
Protocol: Immortalized TC28 (a.k.a. “[…]”) juvenile rib chondrocytes were provided by Dr. Mary Goldring (Harvard Medical School, Boston, Mass.). The TC28 cells were maintained in monolayer culture in DMEM/Ham's F12 (1:1) and supplemented with 10% FCS, 1% L-glutamine, 100 units/ml Penicillin and […] Streptomycin (Omega Scientific, Tarzana, Ca) and cultured at 37° C. with 5% CO2. Additionally, to further study chondrocytic cells in a more physiologic nonadherent state, in some experiments, TC28 cells were transferred to 6 well plates that had been previously coated for 18 hours at 22° C. with 10% (v/v) in 95% ethanol solution of the cell adhesion inhibitor poly 2-hydroxyethyl methacrylate (polyHEME), followed by two washes in PBS. Complete DMEM/Ham's F12 medium was then added to the wells and the cells studied for up to 72 hours in culture (Folkman J. and Moscona A: Role of cell shape in growth control, Nature 273:345-349, 1978; Reginato A, Iozzo R, Jimenez S: Formation of Nodular Structures Resembling Mature Articular Cartilage in Long-Term Primary Cultures of Human Fetal Epiphyseal Chondrocytes on a Hydrogel Substrate, Arthritis Rheum 37: 1338-1349, 1994). Type II collagen and aggrecan expression were confirmed using RT-PCR, which verified maintenance of chondrocyte phenotype. The chondrocyte protective effects of representative compounds were screened in vitro. The agonists included a donor of nitric oxide (NOC-12), a donor of peroxynitrite (SIN-1), and human recombinant IL-1beta. […] Cytotoxicity was studied using standard LDH release assay, and chondrocyte intracellular ATP was measured by standard luciferase assay. The enhanced release from chondrocytes of glycosaminoglycans (GAG) is a central feature of osteoarthritic chondrocytes, and is known to be stimulated potently by IL-1, which, like NO and peroxynitrite is a major pathogenic factor in osteoarthritis. […] The digestion of the interfering proteins accomplished in this manner allowed the GAG release to be more readily detectable, and the GAG release was quantified by the standard dimethylene blue (DMB) dye binding colorimetric assay. In brief, the cell extract digested from above was combined with 46 μM DMB, 40 mM glycine and 40 mM NaCl (pH 3.0) and immediately read at 525 nm and compared again at a standard curve generated with samples of 1-50 μg/ml chondroitin sulfate (Farndale R, Buttle D, Barrett A: Improved quantitation and discrimination of sulphated glycosaminoglycans by us of dimethylmethylene blue, Biochimica et Biophysica Acta 883: 173-177, 1986; SztrolovicsR, White R, Poole R, Mort J, Roughley P: Resistance of small leucine-rich repeat proteoglycans to proteolytic degradation during interleukin-1 stimulated cartilage catabolism, Biochem J. 339: 571-577, 1999). Collagen production was measured by following ^3H proline incorporation as described in Johnson et al., Arthritis Rheum. 43:11560-70, 2000. […] In these experiments, TC28 cells in polyHEME coated plates were pre-treated for 1 hr followed by exposure to trigger for 72 hrs in the present of Compound (1).

TC28 cells [2] = experiment: Cell viability assay (LDH release, CytoTox 96); settings: approximate, prevention of cell death, 1 h pretreatment, 24 h exposure
Protocol: 1×10^5 TC28 cells (DMEM/F12 media with 10% FCS, 1% glutamine, 1% P/S) were plated each well in a 96 well plate and allowed to adhere overnight. The cells were washed once with PBS and media changed to contain only 1% FCS. Compound (1) at various concentrations was added to the cells for a pretreatment of 1 hr. The media was removed and fresh compound+/− the toxic stimuli were added. The cells were then incubated for 24 hrs at 37° C. Following the incubation the media was collected and used for analysis in the CytTox 96 Nonradioactive Cytotoxicity Assay (Promega, Madison, Wis.). Briefly the LDH release from the dead cells was quantified in a 30 min enzymatic reaction that results in the conversion of a tetrazolium […] to a red formazan product. The results were then expressed as the percent of cells dead relative to the release of LDH by the control cells.
(§1) The results of the above Cell Viability and ATP Assays are presented in Table 3, which provides the approximate EC50 values (μM) for prevention of SIN-1 and NOC-12 mediated cell death and ATP depletion by Compound (1). In these assays, TC28 cells were pre-treated for one hour followed by 24-hour exposure to trigger in the presence of Compound (1).

TC28 cells [3] = experiment: ATP assay (luciferase); settings: approximate, prevention of ATP depletion, 1 h pretreatment, 24 h exposure
Protocol: 5×10^5 TC28 cells were plated in a 60 mm dish and allowed to adhere overnight. The cells were then washed with PBS and media was changed to 1% FCS containing media. Compound (1) was added for 1 hr pretreatment of the cells at 37° C. The media was removed and fresh compound+/− the toxic stimuli were added and the cells incubated for 24 hrs at 37° C. The cells were gently scraped into PBS and washed and then the pellets were snap frozen in dry ice. The cells were then extracted in 0.4 N perchloric acid and incubated on ice for 15 min. The cells were centrifuged at 14,000 rpm for 15 min and the supernatant removed. 24% (by volume) of 2.2 M KHCO3 was added to neutralize the solution and the precipitate was pelleted by centrifugation. This supernatant was mixed with the ATP assay mix from the Sigma ATP Luciferase kit and the reaction was counted for 15 sec (with an initial 5 sec delay) in triplicate. Counts were corrected for total DNA in the cell pellet (see Table 3).
as §1

TC28 cells [4] = experiment: Collagen synthesis (3H proline incorporation); settings: approximate, prevention of inhibition of collagen synthesis, polyHEME plates, 1 h pretreatment, 72 h
Protocol: Collagen production was measured by following ^3H proline incorporation as described in Johnson et al., Arthritis Rheum. 43:11560–70, 2000. The results are presented in Table 4, which provides the approximate EC50 values (μM) for prevention of SIN-1, NOC-12 and IL-1 mediated GAG release (via Example 3) and inhibition of collagen synthesis (via Johnson et al.) in chondrocytes by Compound (1). In these experiments, TC28 cells in polyHEME coated plates were pre-treated for 1 hr followed by exposure to trigger for 72 hrs in the present of Compound (1).

TC28 cells [5] = experiment: Oxygen consumption / mitochondrial respiration in TC28 monolayer culture; settings: 500 μM SIN-1 for 4 hr +/- 10 μM compound, FIG. 1
Protocol: In this experiment, TC28 cells were treated with 500 μM SIN-1 for 4 hr+/−10 μM Compound (1): State 3/4—basal respiration rate with no substrate addition; State 4—respiration rate in present of […] oligomycin; State 3U—maximal state 3 uncoupled respiration rate due to addition of the uncoupler CCCP.

bovine cartilage slices [6] = experiment: Bovine cartilage organ culture, IL-1-mediated GAG release; settings: approximate, IL-1 10 ng/ml, 6 h pretreatment, 24 h, read-out: EC50 GAG Release, IL-1 Trigger
Protocol: (§2) Mature bovine knees were obtained and cartilage from the femoral condyles and patellar groove was removed in full thickness slices. (1–3 mm). Circular cores (6–7 mm in diameter) were punched out of the tissue. The cores were washed twice with media (1% FCS, 1% P/S, 1% glutamine containing DMEM high glucose) and then placed in 96 wells plates. The slices were incubated in media (as above) at 37° C. for 48 hrs to allow for recovery from the isolation process. After the recovery period, the media was removed and fresh media with Compound (1) was added to the slices for a pretreatment period of 6 hrs. Then the media was removed and fresh Compound (1)+/− IL-1 (at 10 ng/ml) was added and incubated at 37° C. for 24 hrs. The conditioned media was collected and the GAG and NO release were analyzed. Finally the slices were weighed to correct for slight variations in size or thickness. The results of this experiment are presented in Table 5, which provides the approximate EC50 values (μM) for prevention of IL-1-mediated GAG and NO release in bovine cartilage slices by Compound (1).

bovine cartilage slices [7] = experiment: Bovine cartilage organ culture, IL-1-mediated NO release; settings: approximate, IL-1 10 ng/ml, 6 h pretreatment, 24 h, read-out: EC50 NO Release, IL-1 Trigger
Protocol: as §2

SMILES | % Decrease in GAG Release, IL-1b (TC28 cells [1]) [%] | % Decrease in GAG Release, NOC-12 (TC28 cells [1]) [%] | % Decrease in GAG Release, SIN-1 (TC28 cells [1]) [%] | further results
COc1ccc(NC(N)=NC#N)cc1Cl [(2)] | 40.9 | 50.1 | 23.6 | 
N#CN=C(N)Nc1ccc(N2CCOCC2)cc1 [(3)] | 29.1 | 28.0 | 21.9 | 
COc1cc(NC(N)=NC#N)cc(OC)c1OC [(4)] | 1.5 | 17.2 | 11.3 | 
N#CN=C(N)Nc1cccc(C(F)(F)F)c1 [(5)] | 30.7 | 14.2 | 35.0 | 
Cc1ccc(NC(N)=NC#N)c(C)c1 [(6)] | 2.4 | 11.0 | 1.6 | 
Cc1cc(C)cc(NC(N)=NC#N)c1 [(7)] | 56.6 | 46.2 | 42.3 | 
Cc1cc(Cl)ccc1NC(N)=NC#N [(8)] | 43.8 | 32.3 | 55.2 | 
Cc1cc(O)ccc1NC(N)=NC#N [Compound (1)] | 36.8 | 27.4 | 47.7 | EC50 (TC28 cells [1]; IL-1 challenge 10 ng/ml, read-out: EC50 GAG Release, trigger IL-1): ~0.1 µM; EC50 (TC28 cells [1]; NOC-12 challenge 25 μM, read-out: EC50 GAG Release, trigger Noc12): ~0.1 µM; EC50 (TC28 cells [1]; SIN-1 challenge 10 μM, read-out: EC50 GAG Release, trigger Sin-1): ~0.1 µM; EC50 (TC28 cells [2]; NOC-12 challenge 250 μM, read-out: EC50 Cell Viability, trigger Noc12): ~0.01 µM; EC50 (TC28 cells [2]; SIN-1 challenge 100 μM, read-out: EC50 Cell Viability, trigger Sin-1): ~0.01 µM; EC50 (TC28 cells [3]; NOC-12 challenge 250 μM, read-out: EC50 ATP Depletion, trigger Noc12): ~0.1 µM; EC50 (TC28 cells [3]; SIN-1 challenge 100 μM, read-out: EC50 ATP Depletion, trigger Sin-1): ~0.1 µM; EC50 (TC28 cells [4]; IL-1 challenge 10 ng/ml, read-out: EC50 Collagen, trigger IL-1): ~1 µM; EC50 (TC28 cells [4]; NOC-12 challenge 25 μM, read-out: EC50 Collagen, trigger Noc12): ~1 µM; EC50 (TC28 cells [4]; SIN-1 challenge 10 μM, read-out: EC50 Collagen, trigger Sin-1): ~1 µM; SIN-1-mediated inhibition of mitochondrial respiration (TC28 cells [5]): blocked SIN-1-mediated inhibition of mitochondrial respiration; EC50 (bovine cartilage slices [6]): ~10 µM; EC50 (bovine cartilage slices [7]): ~10 µM
